Assay results reported in the NIST ThermoML archive (doi:10.1021/je200833s).
Numbers after ± are expanded uncertainties.

Test: molar enthalpy of vaporization or sublimation
Settings: 298.15 K; Crystal; Calvet

SMILES | molar enthalpy
Oc1ccc(I)cc1 [4-iodophenol] | 21.2 ± 0.717 kcal/mol
Oc1ccccc1I [2-iodophenol] | 18.2 ± 0.669 kcal/mol
Oc1cccc(I)c1 [m-iodophenol] | 21.1 ± 0.765 kcal/mol
